Tested on: athymic nude mice doubly xenografted with PC3 cells and 22Rv1 cells
Assay: Quantitative PET imaging in doubly xenografted mice
Type: in vivo
Conditions: PET VOI analysis, 50-70 min p.i., retro-orbital injection

uptake in 22Rv1 tumor: 3.22 % ID/g
Structure (SMILES): O=C([O-])CN(CCN(CC(=O)[O-])Cc1cc(CCC(=O)NCCCCCC(=O)NCCCC[C@H](NC(=O)N[C@@H](CCC(=O)O)C(=O)O)C(=O)O)ccc1[O-])Cc1cc(CCC(=O)O)ccc1[O-].[68Ga+3].[OH3+] [[^68Ga]Ga-PSMA11, HO-Glu-CO-Lys(HBED-CC-Ahx)-OH]
